Here are results for 1 compound from patent publication US20220030913A1, “SUPPLEMENT FOR LIVESTOCK” (Hoxie Feedyard, LLC, priority 2020, published 2022).

The nature of assay [1]: 60 Day feeding study, cattle performance. The assay is classed as in vivo, cattle (crossbred steers). An excerpt: (§1) Feeding trials were completed with a randomized block design utilizing 4 treatments and 13 replicates per treatment. The first 20 pens (block 1, 5 replicates per treatment group) were placed first, the second 20 pens (block 2, 5 replicates per treatment group) were placed […], and the last 12 pens (block 3, 3 replicates per treatment group) were placed last. All cattle were housed within one area of the feedyard.
(§2) Crossbred steers (n=4,849) with an average weight of 590 kg+/−19.7 kg of various origins from the High Plains and Midwest were selected from within a northwest Kansas commercial feedyard. All cattle underwent the same receiving protocol and were placed in 200 head pens. All cattle were acclimated to feedlot rations and had been on feed a minimum of 60 days prior to trial enrollment. Starting rations during the initial 60 days included 75 mg/head/day tylosin (Tylan, Elanco Animal Health, Greenfield, Ind.) with 15 g/ton monensin (Rumensin, Elanco Animal Health, Greenfield, Ind.).
(§3) At 60 days of feed, 2-200 head pens were systematically allocated to 4 pens of 100 head. Two pens of 200 head were sorted at the chute into 4-100 head pens at time of terminal implant. Each 200 head pen contributed 50 head to each of the 4 pens that would be eventually allocated to treatment. This was accomplished by systematic allocation of 5 head at a time to each of the trial pens. If 200 head counts were not exactly 100 head/pen, the final allocations were that the number of animals per treatment group were similar. Once the 4-100 head pens (1 replicate) were sorted, the pens of cattle were weighed by pen, a 4% pencil shrink was applied, and pens were randomly assigned to 1 of 4 treatments: (1) Positive control (MT) 75 mg/head/day tylosin (Tylan,® Elanco Animal Health, Greenfield, Ind.) and 185 mg/head/day monensin (Rumensin,® Elanco Animal Health, Greenfield, Ind.); (2) Negative control (NO MT) fed without Rumensin® or Tylan®; (3) Decoquinate (DECO) fed 275 to 325 mg/head/day (Deccox,® Zoetis, Parsippany, N.J.); or (4) 3 g/head/day Yucca schidigera (YS) (Micro-Aid,® DPI Global, Porterville, Calif.). All cattle received an identification tag specific to the trial. Caretakers and processing staff were blinded to treatment.
All treatment groups received the same base ration (Table 1) that was balanced to provide 14% crude protein DM, […] NEg (Table 1). Rations were prepared using a stationary batcher box (Feeding Systems, Inc., Columbus, Nebr.) and loaded onto mixer/delivery trucks with box-mounted scale (Rotomix Manufacturing, Dodge City, Kans.). Treatment rations were delivered twice daily (0800 and 1300) on separate trucks to prevent cross contamination of treatment rations.
Data on cattle performance were derived from feedlot closeout reports after all pens of cattle were shipped to an abattoir. Daily dry matter intakes were recorded via bunk management personnel and entered into the computerized bunk management system. The average dry matter intake per pen over the 60-day period was retrieved from closeout data. Final body weight was calculated as (carcass weight/0.64). Average daily gain (ADG) was calculated on a pen basis using the equation ((Final body weight−Initial body weight)/days on feed). Feed conversion was calculated by dividing the […], then carcass adjusted G:F was calculated as the reciprocal of feed conversion.
Continuous variables were analyzed using PROC Glimmix (SAS 9.4, SAS Inst. Inc., Cary, N.C.). Models contained treatment as a fixed effect, block as a random effect, and pen as the experimental unit. Least squares means were compared using the PDIFF function of SAS and the Tukey-Kramer adjustment for multiple comparisons. Statistical significance was determined at P<0.05 with tendencies at 0.06>P<0.10. Liver abscess scores, yield grade, and incidence of Eimeria spss. were converted to pen level frequency percentages prior to analysis. […]

Assay [2] is described as follows: 60 Day feeding study, carcass characteristics. Format: in vivo, cattle (crossbred steers). As to conditions: 60 day study.
Excerpt: as §1, §2, §3
(§4) At 60±4 days of feed, all pens of cattle were shipped to the same abattoir. Hot carcass weight was collected from the plant via scale on carcass rail. Liver abscess scores were assessed by USDA trained professionals and data were collected by third party trained professionals using the liver scoring system previously described by Brown et al. (1975): 0=no abscesses, A−=2-4 abscesses under 1 inch in diameter, A=1-2 abscesses greater than 1 inch in diameter and A+=abscesses greater than 2 inches in diameter, ruptured abscess, or adhesions to body wall. Yield grade and quality grade data were collected from the abattoir by a third party.
(§5) Continuous variables were analyzed using PROC Glimmix (SAS 9.4, SAS Inst. Inc., Cary, N.C.). Models contained treatment as a fixed effect, block as a random effect, and pen as the experimental unit. Least squares means were compared using the PDIFF function of SAS and the Tukey-Kramer adjustment for multiple comparisons. Statistical significance was determined at P<0.05 with tendencies at 0.06>P<0.10. Liver abscess scores, yield grade, and incidence of Eimeria spss. were converted to pen level frequency percentages prior to analysis.

Another assay relates to liver abscesses. Briefly: 60 Day feeding study, liver abscess scores at slaughter. Format: in vivo, cattle (crossbred steers). The settings on record: 60 day study.
Excerpt: as §1, §2, §3, §4, §5

A further assay has as its system Eimeria spp. Description: 60 Day feeding study, qualitative fecal flotation for Eimeria. As to conditions: fecal samples at 50 d of feed, samples positive for at least 1+ Eimeria. Format: in vivo. An excerpt: At 60 days of feed, 2-200 head pens were systematically allocated to 4 pens of 100 head. Two pens of 200 head were sorted at the chute into 4-100 head pens at time of terminal implant. Each 200 head pen contributed 50 head to each of the 4 pens that would be eventually allocated to treatment. This was accomplished by systematic allocation of 5 head at a time to each of the trial pens. If 200 head counts were not exactly 100 head/pen, the final allocations were that the number of animals per treatment group were similar. […]
Freshly voided fecal samples (n=10 per pen) were collected at 50 d of feed for fecal flotation to determine the presence of Eimeria spss. […] Qualitative fecal flotation measurements were measured on a scale of 1+ to 5+ with 1+ having <10 oocysts per slide, 3+ samples having 50-100 oocysts per slide, and 5+ having >500 oocysts/slide. This technique is considered semi-quantitative, with 3+ samples equivalent to approximately 50 oocysts/gram. […]
Continuous variables were analyzed using PROC Glimmix (SAS 9.4, SAS Inst. Inc., Cary, N.C.). […] Statistical significance was determined at P<0.05 with tendencies at 0.06>P<0.10. […]

Consider `CCCCCCCCCCOc1cc2c(O)c(C(=O)OCC)cnc2cc1OCC` [DECO, decoquinate], for which, in assay [1] (60 day study), the “final body weight, rank among treatment groups” value is “intermediate” and the “growth performance compared with MT group” value is “more similar to cattle in the MT group”. Moreover, in assay [1] (steers, average daily dry matter intake over 60-day period), the DMI is 12.1^a, b kg. The “Carcass adjusted G:F” value in assay [1] (steers, last 60 days on feed) is 0.120 kg/kg. Further, the “Carcass adjusted ADG” value in assay [1] (steers, last 60 days on feed, pen basis) is 1.47^a, b kg. Moreover, in assay [1] (steers, treatment in ration for last 60 days, final BW = carcass weight/0.64), the “Carcass adjusted final BW” value is given as 681.0^a, b kg. Further, in assay [2], the Dressing yield is on record as 63.9^a, b % and the “HCW, rank among treatment groups” value is given as “intermediate”. Also, the HCW in assay [2] (hot carcass weight) is 435.8^a, b kg. For the same compound, in assay [2] (quality grade), the Choice turned out to be 83.5%, the Prime is reported as 2.4%, the Select was determined as 11.9% and the Standard turned out to be 2.1%. Further, in assay [2] (yield grade 1, pen level frequency), the YG1 was 7.0^a, c %. Also, in assay [2] (yield grade 2), the YG2 came to 33.8%. For the same compound, the YG3 in assay [2] (yield grade 3) turned out to be 40.8%. The YG4 in assay [2] (yield grade 4) is on record as 17.1%. The same compound came in with a YG5 in assay [2] (yield grade 5) of 1.3%. In addition, the Total liver abscess in the assay with liver abscesses is on record as 31.4^a, b %. Also, the “incidence of liver abscesses compared with other groups” value in the assay with liver abscesses (pairwise comparisons of least squares means) is “higher than cattle in the MT group, but lower than cattle in the NO MT group”. The A liver abscesses in the assay with liver abscesses (A = 1-2 abscesses greater than 1 inch) amounted to 4.1%. In the assay on liver abscesses (A+ = abscesses greater than 2 inches, ruptured abscess or adhesions), the “A+ liver abscesses” value is 19.68^a, b %. Further, in the assay with liver abscesses (A− = 2-4 abscesses under 1 inch), the “A− liver abscesses” value is given as 7.6%. The compound also returned an Eimeria spp. incidence in the assay with Eimeria spp. of 5.0%.
